From patent publication US9597375B2, “Coagulation and fibrinolytic cascades modulator” (The Board of Trustees of the University of Illinios, priority 2005, dated 2017)
“Also recorded” adds a separate entry of the source. Like-named read-outs stand apart in the source and are kept apart here.

What was measured:
[1] = tested on: fibrinolysis in pooled normal plasma; assay: Plasma clot lysis model, clotting initiated by calcium ions and thrombin in presence of plasminogen activator; assay type: biochemical, human
Experimental: In order to study the effect of polyP on fibrinolysis independent of its effect on clotting times, the model was modified such that clotting was initiated by a mixture of calcium ions and thrombin in the presence of uPA (pooled normal plasma supplemented with 1.4 nM uPA). The amount of thrombin was chosen to yield rapid clotting times, permitting analyses to focus on the lytic phase only. […] In the absence of polyP, the clots subsequently lysed, with a 50% lysis time of 61 min in this experiment. […] The magnitude of the effect of polyP75 on the inhibition of fibrinolysis was dependent on the uPA concentration. At high uPA concentrations the effect of polyP75 could be masked, presumably reflecting a balance situation between uPA and polyP within the clot (data not shown).
Microplate-based assays of plasma clotting and fibrinolysis—Some of the clotting assays were conducted in flat-bottom, polystyrene, 96-well plates (Corning). Turbidity, a measure of clot formation, was quantified at 37° C. by measuring the absorbance of light at 405 nm in a VERSAmax microplate reader (Molecular Devices, Sunnyvale, Calif.). Reactions (100 μl final volume) typically contained the following final concentrations: 30% (v/v) human plasma; 8 mM Tris-HCl buffer, pH 7.4; 0.008% (v/v) Tween-20; 10.6 mM calcium chloride; and, variably, 10 nM thrombin. In some experiments, clotting reactions were initiated by calcium ions alone. In this case, a 1.25× reaction mixture of the above-described components (except calcium chloride) was prepared in a final volume of 80 μl per well. Clotting was then initiated by adding 20 μl of 53 mM calcium chloride and absorbance at 405 nm was monitored. In other experiments, clotting was initiated by a mixture of calcium ions and thrombin. In these cases, to the 80 μl reaction mixtures described above were added 10 μl of 106 mM calcium chloride followed immediately by 10 μl of 100 nM thrombin. […]

TFPI = target: T1, TFPI (Homo sapiens, UniProt P10646); assay type: biochemical
T1 construct: Recombinant, full-length human TFPI was a kind gift of Dr. George Broze; gift of Dr. George Broze, Washington University St. Louis
T1 sequence (P10646 29-304): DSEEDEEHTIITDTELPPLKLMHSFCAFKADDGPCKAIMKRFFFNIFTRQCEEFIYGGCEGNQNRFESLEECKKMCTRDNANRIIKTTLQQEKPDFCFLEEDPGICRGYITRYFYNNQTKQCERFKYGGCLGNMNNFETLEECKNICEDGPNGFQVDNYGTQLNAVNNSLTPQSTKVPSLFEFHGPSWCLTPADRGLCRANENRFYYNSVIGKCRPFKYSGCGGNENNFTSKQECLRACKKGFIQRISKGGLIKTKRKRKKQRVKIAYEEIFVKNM
Experimental: The hypothesis that polyP might block the anticoagulant effect of TFPI was tested. This was examined in a dilute PT assay in which varying concentrations of recombinant TFPI were added to plasma samples. Plasma normally contains relatively low levels of free TFPI, so adding exogenous TFPI can dramatically lengthen PT clotting times.
Coagulometer-based plasma clotting assays—Recombinant human tissue factor was reconstituted into phospholipid vesicles as previously described [18], using a mixture of 20% phosphatidylserine and 80% phosphatidylcholine at a phospholipid:tissue factor molar ratio of 8700:1. Blank phospholipid vesicles (PCPS vesicles) composed of 20% phosphatidylserine and 80% phosphatidylcholine (and no tissue factor) were prepared as described [18]. The thromboplastin reagent for the PT assay was prepared by diluting relipidated tissue factor to a final concentration of 200 ng/ml tissue factor in TBSA buffer (50 mM Tris-HCl pH 7.5, 100 mM NaCl, 0.02% sodium azide, 0.1% (w/v) bovine serum albumin). The thromboplastin reagent for the dilute PT assay was prepared in the same manner as the reagent for the PT assay, except that the relipidated tissue factor was typically diluted to a final concentration of 1 ng/ml tissue factor in TBSA buffer containing 50 μM PCPS vesicles.
The PT, XaT, aPTT and PTT clotting assays were typically performed in a STart coagulometer (Diagnostica Stago) by pre-incubating 50 μl of human plasma with 50 μl of the indicated clotting reagent at 37° C. for the following times: PT and XaT assays, 120 sec; aPTT and PTT assays, 180 sec. Clotting was then initiated by adding 50 μl of 25 mM calcium chloride solution that had been pre-warmed to 37° C. The time to clot formation was then measured relative to the point of addition of calcium chloride. […] When the effect of TFPI on clotting was tested, TFPI was added to plasma at the indicated concentration immediately before use. When the effect of polyP on clotting was tested, polyP was added to the clotting reagent at the indicated concentration. […]

pooled normal plasma = assay: Dilute PT assay; assay type: biochemical, human
Experimental: The ability of polyP75 to influence the clotting time of a variety of clotting assays was systematically evaluated, employing commonly used plasma clotting assays including the prothrombin time (PT) assay, the partial thromboplastin time (PTT) assay, the activated partial thromboplastin time (aPTT) assay, a factor Xa clotting assay (XaT), and the thrombin time (TT) assay (FIG. 9). The PT assay, which is conducted by adding a thromboplastin reagent (a source of tissue factor activity and calcium ions) to plasma, drives coagulation through the extrinsic, or tissue factor pathway. The PTT and aPTT assays rely on the contact, or intrinsic, pathway of blood clotting. The XaT assay relies on the presence of factor V, prothrombin and fibrinogen in plasma, while the TT assay relies only on the presence of fibrinogen. Therefore, these assays assess different stages of the blood clotting cascades. All were performed in a coagulometer at 37° C.
Coagulometer-based plasma clotting assays—Recombinant human tissue factor was reconstituted into phospholipid vesicles as previously described, using a mixture of 20% phosphatidylserine and 80% phosphatidylcholine at a phospholipid:tissue factor molar ratio of 8700:1. Blank phospholipid vesicles (PCPS vesicles) composed of 20% phosphatidylserine and 80% phosphatidylcholine (and no tissue factor) were prepared as described. […]
The PT, XaT, aPTT and PTT clotting assays were typically performed in a STart coagulometer (Diagnostica Stago) by pre-incubating 50 μl of human plasma with 50 μl of the indicated clotting reagent at 37° C. for the following times: PT and XaT assays, 120 sec; aPTT and PTT assays, 180 sec. […] The time to clot formation was then measured relative to the point of addition of calcium chloride. The TT clotting assay was performed in the same coagulometer as follows: 50 μl human plasma was pre-warmed to 37° C. for 60 sec, after which 50 μl of pre-warmed TT reagent was added and the time to clot formation was measured. […]

[2] = polyP25-75 at 75 μM phosphate equivalents (FIG. 5), short phosphates data not shown

sodium tripolyphosphate [polyP3]
ability to inhibit fibrinolysis, dependence on chain length [1, 2]: no discernable effect on fibrinolysis
blocking of TFPI anticoagulant effect, dependence on chain length (TFPI; 200 ng/ml TFPI, 75 μM phosphate equivalents in dilute thromboplastin reagent (FIG. 12)): did not block TFPI anticoagulant function at all

O=P(O)(O)O [Pi, sodium phosphate]
ability to inhibit fibrinolysis, dependence on chain length [1]: no discernable effect on fibrinolysis
blocking of TFPI anticoagulant effect, dependence on chain length (TFPI): did not block TFPI anticoagulant function at all

TFPI: Recombinant, full-length human tissue factor pathway inhibitor
dilute PT clotting time (pooled normal plasma; 100 ng/ml TFPI added to pooled normal plasma, no polyP (66 sec without TFPI)): over 160 sec
dilute PT mean clotting time (pooled normal plasma; 200 ng/ml TFPI added, no polyP (59 sec without TFPI)): 294 s
effect of added TFPI on dilute PT clotting time (in words) (pooled normal plasma; TFPI added to pooled normal plasma, no polyP): greatly prolonged the dilute PT clotting time; also recorded: substantially prolonged

O=P(O)(O)OP(=O)(O)O [PPi, pyrophosphate]
ability to inhibit fibrinolysis, dependence on chain length [1, 2]: no discernable effect on fibrinolysis
blocking of TFPI anticoagulant effect, dependence on chain length (TFPI): did not block TFPI anticoagulant function at all
